Results as given in patent US8507490B2, “Tetrasubstituted pyridazine hedgehog pathway antagonists” (Eli Lilly and Company, priority 2008, dated 2013).
Where a name gives a salt, the structure may show the parent alone.

Test system: Gli1 transcript in Daoy cells (Shh signaling)
Assay: Functional assay for measuring the inhibition of Gli1 in Daoy cells (bDNA assay of Gli1 transcript after Shh-conditioned media stimulation)
Assay type: cell-based
Details: Homo sapiens; Daoy cells stimulated with Shh-CM, 24 hours incubation with compound, Gli1 bDNA luminescence
Experimental: Biological activity is determined using a functional assay in Daoy neuronal cancer cells and measures levels of Gli1 ribonucleic acid via a bDNA (branched deoxyribonucleic acid) assay system (Panomics, Inc., Fremont, Calif.). Gli was originally discovered in a Glioblastoma cell line and encodes a zinc finger protein that is activated by Shh signaling. The maximum response is obtained by inducing Gli1 transcription in the Daoy cells with conditioned medium (human embryonic kidney, HEK-293 cells stably expressing recombinant Shh) for 24 hours and then measuring the amount of stimulated Gli1 transcript. […]
The bDNA assay system utilizes the technology of branched-chain DNA to allow amplification of a target ribonucleic acid (transcript). […] The addition of a chemilumigenic substrate during the amplification step allows for detection using luminescence. […]
Daoy cells are grown to confluency in tissue culture T225-flasks in Daoy growth media containing Minimum Essential Medium (MEM) plus 10% Fetal Bovine Serum (FBS) with […] non-essential amino acids and 1 mM sodium pyruvate. The cells are removed from the T225-flasks using trypsin ethylenediaminetetraacetic acid (EDTA), centrifuged, resuspended in media, and then counted. […]

An IC50 of roughly 1.27 nM was found for `Cc1c(-c2ccc(C#N)cc2)nnc(N2CCC(N(C)C(=O)c3cccnc3C(F)(F)F)CC2)c1C` [Example 14, N-(1-(6-(4-Cyanophenyl)-4,5-dimethylpyridazin-3-yl)piperidin-4-yl)-N-methyl-2-(trifluoromethyl)nicotinamide dihydrochloride] in this work.

An IC50 of roughly 1.22 nM was found for `Cc1c(-c2ccc(F)cc2)nnc(N2CCC(N(C)C(=O)[C@@H]3CCCCN3)CC2)c1C` [Example 34, (S)-N-(1-(6-(4-Fluorophenyl)-4,5-dimethylpyridazin-3-yl)piperidin-4-yl)-N-methylpiperidine-2-carboxamide dihydrochloride] in this work.
